Assays:
Test in all cases: NanoBRET K192
Format in all cases: cell-based
MAST4 = molecular target: T1, MAST4 (Homo sapiens, UniProt O15021); details: HEK293
T1 construct: purchased Promega (NanoBRET Target Engagement K192 Kinase Selectivity System)
Method in brief: (§1)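 HEK293 cells were transfected overnight with NanoLuc–kinase fusion vectors, then treated for 2 h at 37 °C with compound (added as 100 μM working solution) plus K10 tracer. BRET was read at 450/610 nm after substrate and extracellular inhibitor, and fractional occupancy was calculated against no-compound controls.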

CDK3 + E1 = molecular target: T2, CDK3 + E1 (Homo sapiens, UniProt Q00526); details: HEK293
T2 construct: purchased Promega (NanoBRET Target Engagement K192 Kinase Selectivity System)
Method in brief: as §1

TEK = molecular target: T3, TEK (Homo sapiens, UniProt Q02763); details: HEK293
T3 construct: purchased Promega (NanoBRET Target Engagement K192 Kinase Selectivity System)
Method in brief: as §1

MARK2 = molecular target: T4, MARK2 (Homo sapiens, UniProt Q7KZI7); details: HEK293
T4 construct: purchased Promega (NanoBRET Target Engagement K192 Kinase Selectivity System)
Method in brief: as §1

STK36 = molecular target: T5, STK36 (Homo sapiens, UniProt Q9NRP7); details: HEK293
T5 construct: host or cells: HEK293
Method in brief: as §1

IKBKE = molecular target: T6, IKBKE (Homo sapiens, UniProt Q14164); details: HEK293
T6 construct: purchased Promega (NanoBRET Target Engagement K192 Kinase Selectivity System)
Method in brief: as §1

MAST3 = molecular target: T7, MAST3 (Homo sapiens, UniProt O60307); details: HEK293
T7 construct: purchased Promega (NanoBRET Target Engagement K192 Kinase Selectivity System)
T7 sequence (O60307 whole entry): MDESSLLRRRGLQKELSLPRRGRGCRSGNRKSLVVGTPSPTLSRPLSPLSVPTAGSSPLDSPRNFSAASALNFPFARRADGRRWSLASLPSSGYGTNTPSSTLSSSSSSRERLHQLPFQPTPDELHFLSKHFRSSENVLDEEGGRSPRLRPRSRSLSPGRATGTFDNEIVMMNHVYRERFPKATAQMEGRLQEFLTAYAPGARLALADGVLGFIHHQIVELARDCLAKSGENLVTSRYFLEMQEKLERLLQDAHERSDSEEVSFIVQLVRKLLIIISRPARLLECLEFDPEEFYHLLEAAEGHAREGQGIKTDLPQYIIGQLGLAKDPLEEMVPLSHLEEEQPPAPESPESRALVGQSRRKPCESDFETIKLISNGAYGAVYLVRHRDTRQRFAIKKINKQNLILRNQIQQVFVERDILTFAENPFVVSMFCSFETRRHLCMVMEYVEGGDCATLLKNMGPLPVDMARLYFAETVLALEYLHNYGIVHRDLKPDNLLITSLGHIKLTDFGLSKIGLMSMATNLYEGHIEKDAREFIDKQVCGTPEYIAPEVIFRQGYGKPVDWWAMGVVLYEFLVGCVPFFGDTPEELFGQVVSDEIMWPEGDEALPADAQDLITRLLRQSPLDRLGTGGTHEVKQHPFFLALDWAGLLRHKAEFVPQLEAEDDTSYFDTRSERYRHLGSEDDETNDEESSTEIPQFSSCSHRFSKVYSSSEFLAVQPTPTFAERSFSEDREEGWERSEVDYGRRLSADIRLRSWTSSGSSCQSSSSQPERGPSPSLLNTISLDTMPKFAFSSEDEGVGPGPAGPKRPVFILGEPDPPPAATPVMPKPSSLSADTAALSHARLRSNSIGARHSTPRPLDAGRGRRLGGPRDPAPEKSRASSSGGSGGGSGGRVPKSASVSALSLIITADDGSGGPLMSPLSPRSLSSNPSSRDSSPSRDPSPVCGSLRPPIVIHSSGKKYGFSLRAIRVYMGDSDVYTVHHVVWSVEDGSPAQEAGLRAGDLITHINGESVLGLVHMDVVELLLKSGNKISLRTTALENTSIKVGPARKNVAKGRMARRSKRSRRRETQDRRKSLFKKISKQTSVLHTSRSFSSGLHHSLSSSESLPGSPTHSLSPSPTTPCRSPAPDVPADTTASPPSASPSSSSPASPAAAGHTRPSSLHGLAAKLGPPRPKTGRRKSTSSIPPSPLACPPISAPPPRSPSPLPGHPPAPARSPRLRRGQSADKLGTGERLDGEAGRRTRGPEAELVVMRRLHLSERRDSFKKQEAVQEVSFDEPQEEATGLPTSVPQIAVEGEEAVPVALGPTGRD
Method in brief: as §1

RIPK1 = molecular target: T8, RIPK1 (Homo sapiens, UniProt Q13546); details: HEK293
T8 construct: purchased Promega (NanoBRET Target Engagement K192 Kinase Selectivity System)
Method in brief: as §1

MET = molecular target: T9, MET (Homo sapiens, UniProt P08581); details: HEK293
T9 construct: purchased Promega (NanoBRET Target Engagement K192 Kinase Selectivity System)
Method in brief: as §1

NEK4 = molecular target: T10, NEK4 (Homo sapiens, UniProt P51957); details: HEK293
T10 construct: purchased Promega (NanoBRET Target Engagement K192 Kinase Selectivity System)
T10 sequence (P51957 whole entry): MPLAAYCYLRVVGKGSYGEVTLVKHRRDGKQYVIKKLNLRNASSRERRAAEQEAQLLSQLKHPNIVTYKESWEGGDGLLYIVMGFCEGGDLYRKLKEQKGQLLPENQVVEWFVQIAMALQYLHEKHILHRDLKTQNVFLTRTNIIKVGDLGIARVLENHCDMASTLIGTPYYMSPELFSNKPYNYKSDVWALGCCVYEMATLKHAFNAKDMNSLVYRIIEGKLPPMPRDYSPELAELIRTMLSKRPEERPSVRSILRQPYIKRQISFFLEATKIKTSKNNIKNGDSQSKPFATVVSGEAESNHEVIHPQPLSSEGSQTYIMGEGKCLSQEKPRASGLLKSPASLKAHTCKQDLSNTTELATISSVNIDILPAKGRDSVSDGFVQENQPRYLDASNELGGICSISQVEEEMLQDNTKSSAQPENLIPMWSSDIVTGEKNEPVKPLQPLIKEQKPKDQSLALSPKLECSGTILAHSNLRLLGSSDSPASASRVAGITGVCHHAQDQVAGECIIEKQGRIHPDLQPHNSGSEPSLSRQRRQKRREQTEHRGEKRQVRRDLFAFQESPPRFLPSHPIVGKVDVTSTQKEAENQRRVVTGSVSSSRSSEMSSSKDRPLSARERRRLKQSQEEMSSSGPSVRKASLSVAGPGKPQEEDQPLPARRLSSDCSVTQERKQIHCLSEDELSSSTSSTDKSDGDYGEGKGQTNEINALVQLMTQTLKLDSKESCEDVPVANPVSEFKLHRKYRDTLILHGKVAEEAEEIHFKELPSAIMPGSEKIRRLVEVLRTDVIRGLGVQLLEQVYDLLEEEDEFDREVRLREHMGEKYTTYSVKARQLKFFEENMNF
Method in brief: as §1

STK17B = molecular target: T11, STK17B (Homo sapiens, UniProt O94768); details: HEK293
T11 construct: purchased Promega (NanoBRET Target Engagement K192 Kinase Selectivity System)
Method in brief: as §1

TEC = molecular target: T12, TEC (Homo sapiens, UniProt P42680); details: HEK293
T12 construct: purchased Promega (NanoBRET Target Engagement K192 Kinase Selectivity System)
Method in brief: as §1

CDKL2 = molecular target: T13, CDKL2 (Homo sapiens, UniProt Q92772); details: HEK293
T13 construct: purchased Promega (NanoBRET Target Engagement K192 Kinase Selectivity System)
T13 sequence (Q92772 whole entry): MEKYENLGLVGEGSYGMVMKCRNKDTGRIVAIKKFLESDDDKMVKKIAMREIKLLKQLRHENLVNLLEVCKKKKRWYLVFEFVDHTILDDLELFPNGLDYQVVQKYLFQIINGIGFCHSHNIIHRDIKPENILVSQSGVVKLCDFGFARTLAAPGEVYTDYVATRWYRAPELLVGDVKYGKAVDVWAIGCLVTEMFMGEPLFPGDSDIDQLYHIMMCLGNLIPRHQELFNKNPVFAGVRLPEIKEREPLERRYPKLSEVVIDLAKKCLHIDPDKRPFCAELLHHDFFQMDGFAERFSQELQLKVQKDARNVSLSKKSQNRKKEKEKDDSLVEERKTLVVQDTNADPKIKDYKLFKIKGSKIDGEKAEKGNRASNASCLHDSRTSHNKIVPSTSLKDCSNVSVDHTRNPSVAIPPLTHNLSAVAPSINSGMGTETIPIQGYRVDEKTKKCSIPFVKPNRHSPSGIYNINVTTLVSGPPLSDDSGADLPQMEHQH
Method in brief: as §1

STK10 = molecular target: T14, STK10 (Homo sapiens, UniProt O94804); details: HEK293
T14 construct: purchased Promega (NanoBRET Target Engagement K192 Kinase Selectivity System)
Method in brief: as §1

MAP3K10 = molecular target: T15, MAP3K10 (Homo sapiens, UniProt Q02779); details: HEK293
T15 construct: host or cells: HEK293
Method in brief: as §1

FGFR3 = molecular target: T16, FGFR3 (Homo sapiens, UniProt P22607); details: HEK293
T16 construct: purchased Promega (NanoBRET Target Engagement K192 Kinase Selectivity System)
Method in brief: as §1

CDK7 + pMB = molecular target: T17, CDK7 + pMB (Homo sapiens, UniProt P50613); details: HEK293
T17 construct: purchased Promega (NanoBRET Target Engagement K192 Kinase Selectivity System)
Method in brief: as §1

NTRK1v1 = molecular target: T18, NTRK1v1 (Homo sapiens, UniProt P04629); details: HEK293
T18 construct: purchased Promega (NanoBRET Target Engagement K192 Kinase Selectivity System)
T18 sequence (P04629 33-790 isoform P04629-2 limits assumed): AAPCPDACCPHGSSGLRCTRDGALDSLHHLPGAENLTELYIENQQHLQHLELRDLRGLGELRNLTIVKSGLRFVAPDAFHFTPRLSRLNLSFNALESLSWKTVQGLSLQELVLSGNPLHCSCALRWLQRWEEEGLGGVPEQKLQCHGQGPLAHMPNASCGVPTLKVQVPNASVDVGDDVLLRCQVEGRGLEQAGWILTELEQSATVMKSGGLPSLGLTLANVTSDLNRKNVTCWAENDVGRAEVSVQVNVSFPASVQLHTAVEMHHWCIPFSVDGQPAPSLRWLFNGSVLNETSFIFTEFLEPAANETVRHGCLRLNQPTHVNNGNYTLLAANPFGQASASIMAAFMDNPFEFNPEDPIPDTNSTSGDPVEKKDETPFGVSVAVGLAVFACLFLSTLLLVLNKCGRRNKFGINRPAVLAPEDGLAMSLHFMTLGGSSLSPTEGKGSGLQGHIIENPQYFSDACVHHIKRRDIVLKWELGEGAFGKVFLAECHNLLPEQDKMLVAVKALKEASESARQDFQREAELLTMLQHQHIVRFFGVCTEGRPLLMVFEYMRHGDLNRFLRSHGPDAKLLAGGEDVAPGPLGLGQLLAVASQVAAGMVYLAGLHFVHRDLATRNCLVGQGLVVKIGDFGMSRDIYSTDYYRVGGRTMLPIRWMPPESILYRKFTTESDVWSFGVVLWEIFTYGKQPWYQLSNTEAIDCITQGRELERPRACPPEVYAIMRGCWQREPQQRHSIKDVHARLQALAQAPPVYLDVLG
Method in brief: as §1

NEK3 = molecular target: T19, NEK3 (Homo sapiens, UniProt P51956); details: HEK293
T19 construct: host or cells: HEK293
Method in brief: as §1

BTK = molecular target: T20, BTK (Homo sapiens, UniProt Q06187); details: HEK293
T20 construct: purchased Promega (NanoBRET Target Engagement K192 Kinase Selectivity System)
T20 sequence (Q06187 whole entry): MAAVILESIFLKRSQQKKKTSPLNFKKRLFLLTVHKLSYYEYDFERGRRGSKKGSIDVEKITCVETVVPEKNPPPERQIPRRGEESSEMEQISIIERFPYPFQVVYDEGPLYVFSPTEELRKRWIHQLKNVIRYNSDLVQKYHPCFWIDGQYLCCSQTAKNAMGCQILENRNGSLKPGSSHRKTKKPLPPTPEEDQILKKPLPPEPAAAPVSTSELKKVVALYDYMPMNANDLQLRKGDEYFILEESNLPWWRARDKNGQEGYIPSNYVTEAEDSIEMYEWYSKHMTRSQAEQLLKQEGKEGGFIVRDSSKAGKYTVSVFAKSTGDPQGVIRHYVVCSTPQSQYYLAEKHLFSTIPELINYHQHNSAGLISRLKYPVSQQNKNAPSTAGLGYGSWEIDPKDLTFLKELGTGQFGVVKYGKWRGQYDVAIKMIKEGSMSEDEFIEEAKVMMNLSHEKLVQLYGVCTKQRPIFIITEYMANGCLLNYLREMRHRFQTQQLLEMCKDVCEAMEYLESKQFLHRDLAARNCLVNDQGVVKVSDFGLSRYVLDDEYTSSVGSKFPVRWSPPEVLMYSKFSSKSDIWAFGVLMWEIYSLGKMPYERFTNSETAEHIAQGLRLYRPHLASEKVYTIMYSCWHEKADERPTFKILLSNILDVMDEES
Method in brief: as §1

JNK3 = molecular target: T21, JNK3 (Homo sapiens, UniProt P53779); details: HEK293
T21 construct: purchased Promega (NanoBRET Target Engagement K192 Kinase Selectivity System)
Method in brief: as §1

WEE2 = molecular target: T22, WEE2 (Homo sapiens, UniProt P0C1S8); details: HEK293
T22 construct: purchased Promega (NanoBRET Target Engagement K192 Kinase Selectivity System)
T22 sequence (P0C1S8 whole entry): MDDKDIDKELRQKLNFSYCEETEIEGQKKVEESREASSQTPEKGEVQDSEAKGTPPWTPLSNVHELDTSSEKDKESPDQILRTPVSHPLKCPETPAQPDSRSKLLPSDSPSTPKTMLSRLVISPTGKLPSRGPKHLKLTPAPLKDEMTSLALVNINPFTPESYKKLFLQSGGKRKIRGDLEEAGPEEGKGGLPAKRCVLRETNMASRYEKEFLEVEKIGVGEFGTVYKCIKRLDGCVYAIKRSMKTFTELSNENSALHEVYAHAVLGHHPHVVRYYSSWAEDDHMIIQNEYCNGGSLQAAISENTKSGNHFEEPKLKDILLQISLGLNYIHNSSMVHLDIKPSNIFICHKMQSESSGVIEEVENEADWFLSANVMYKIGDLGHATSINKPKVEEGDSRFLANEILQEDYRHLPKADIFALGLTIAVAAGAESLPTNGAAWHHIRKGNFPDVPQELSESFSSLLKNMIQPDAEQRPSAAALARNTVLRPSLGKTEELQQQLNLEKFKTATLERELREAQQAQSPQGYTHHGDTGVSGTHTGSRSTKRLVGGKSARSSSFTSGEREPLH
Method in brief: as §1

JAK3 = molecular target: T23, JAK3 (Homo sapiens, UniProt P52333); details: HEK293
T23 construct: purchased Promega (NanoBRET Target Engagement K192 Kinase Selectivity System)
Method in brief: as §1

CSNK1D = molecular target: T24, CSNK1D (Homo sapiens, UniProt P48730); details: HEK293
T24 construct: purchased Promega (NanoBRET Target Engagement K192 Kinase Selectivity System)
Method in brief: as §1

CSNK2A2 = molecular target: T25, CSNK2A2 (Homo sapiens, UniProt P19784)
T25 construct: expressed in transfected cells; host or cells: HEK293
T25 sequence (P19784 whole entry): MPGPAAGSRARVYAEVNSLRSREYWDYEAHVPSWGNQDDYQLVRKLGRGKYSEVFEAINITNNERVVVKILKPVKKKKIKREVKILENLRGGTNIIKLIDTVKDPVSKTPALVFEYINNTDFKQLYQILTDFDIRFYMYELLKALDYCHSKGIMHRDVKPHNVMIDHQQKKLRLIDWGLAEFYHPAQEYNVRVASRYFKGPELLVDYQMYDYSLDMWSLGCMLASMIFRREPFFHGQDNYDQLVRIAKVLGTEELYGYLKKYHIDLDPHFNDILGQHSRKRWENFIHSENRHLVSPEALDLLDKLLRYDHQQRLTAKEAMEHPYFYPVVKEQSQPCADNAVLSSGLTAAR
Method in brief: as §1

CDKL1 = molecular target: T26, CDKL1 (Homo sapiens, UniProt Q00532); details: HEK293
T26 construct: purchased Promega (NanoBRET Target Engagement K192 Kinase Selectivity System)
Method in brief: as §1

BRAF(V600E) = molecular target: T27, BRAF(V600E) (Homo sapiens, UniProt P15056, V600E); details: HEK293
T27 construct: purchased Promega (NanoBRET Target Engagement K192 Kinase Selectivity System)
Method in brief: as §1

STK4 = molecular target: T28, STK4 (Homo sapiens, UniProt Q13043); details: HEK293
T28 construct: purchased Promega (NanoBRET Target Engagement K192 Kinase Selectivity System)
Method in brief: as §1

`CCC(=O)Nc1cc(Nc2cc(NC3CC3)n3ncc(C#N)c3n2)c(F)cc1N1CCC[C@H](NC)C1` [Compound 2, (S)-N-(5-((3-cyano-7-(cyclopropylamino)pyrazolo[1,5-a]pyrimidin-5-yl)amino)-4-fluoro-2-(3-(methylamino)piperidin-1-yl)phenyl)propionamide] showed a receptor occupancy at 10 µM (MAST4) of 11.4%, a receptor occupancy at 10 µM (CDK3 + E1) of 12.1% and a receptor occupancy at 10 µM (TEK) of 5.2%. The receptor occupancy at 10 µM (MARK2) was 14.2%, the receptor occupancy at 10 µM (STK36) was -7.6% and the receptor occupancy at 10 µM (IKBKE) was 23.4%. For the same compound, the receptor occupancy at 10 µM (MAST3) was -0.9%, the receptor occupancy at 10 µM (RIPK1) was 9.1% and the receptor occupancy at 10 µM (MET) was 12.3%. For the same compound, the receptor occupancy at 10 µM (NEK4) was 7.8%, the receptor occupancy at 10 µM (STK17B) was 45.5% and the receptor occupancy at 10 µM (TEC) was 9.1%. It also gave a receptor occupancy at 10 µM (CDKL2) of 13.6%, a receptor occupancy at 10 µM (STK10) of 14.4% and a receptor occupancy at 10 µM (MAP3K10) of -2.4%. The receptor occupancy at 10 µM (FGFR3) was -0.7%, the receptor occupancy at 10 µM (CDK7 + pMB) was 43.9% and the receptor occupancy at 10 µM (NTRK1v1) was 4.6%. The receptor occupancy at 10 µM (NEK3) was -11.1%, the receptor occupancy at 10 µM (BTK) was 3% and the receptor occupancy at 10 µM (JNK3) was 1%. For the same compound, the receptor occupancy at 10 µM (WEE2) was 4.5%, the receptor occupancy at 10 µM (JAK3) was 4.6% and the receptor occupancy at 10 µM (CSNK1D) was 9.4%. For the same compound, the “% occupancy at 10 μM” value (CSNK2A2; CSNK2A2, HEK293) was 97%, the receptor occupancy at 10 µM (CSNK2A2; HEK293, CSNK2A2) was 96.9% and the receptor occupancy at 10 µM (CDKL1) was 1.5%. The receptor occupancy at 10 µM (BRAF(V600E)) was 5.3% and the receptor occupancy at 10 µM (STK4) was 6.9%.

Source: article PMC11397024, “Strategic Fluorination to Achieve a Potent, Selective, Metabolically Stable, and Orally Bioavailable Inhibitor of CSNK2” (Molecules, 2024)
